Data: ChEMBL document CHEMBL5344441, “Discovery and Preclinical Pharmacology of NX-2127, an Orally Bioavailable Degrader of Bruton's Tyrosine Kinase with Immunomodulatory Activity for the Treatment of Patients with B Cell Malignancies” (J Med Chem, 2024)
The source made the active and inactive calls. The rule behind the calls is not given here.

Columns and labels:
[1] = Cmax in cynomolgus monkey at 10 mg/kg,po administration for 1 day; type: ADME, organism-based, Macaca fascicularis; set-up: time 1 day, dose 10 mg/kg, route po; details: in vivo, 24 h
Cereblon/Ikaros = Cereblon/Ikaros (Homo sapiens, UniProt Q96SW2+Q13422); assay: In vivo protac activity at CRBN/IKZF1 in CB17-SCID mouse xenografted with human TMD8 cells assessed as degradation of IKZF1 protein in tumor at 10 to 90 mg/kg,po administration for 25 days by flow cytomtery; type: functional, organism-based; details: dose 10-90 mg/kg, time 25.0 day
[2] = target: Protein cereblon/Tyrosine-protein kinase BTK (Homo sapiens, UniProt Q06187+Q96SW2); assay: PROTAC activity at CRBN/BTK in human PBMC cells asessed as degradation of BTK protein at 50 nM incubated for 4 hrs by proteomics assay based LC-MS/MS analysis; type: cell-based
[3] = target: T1, Protein cereblon-BTK (Macaca fascicularis) (UniProt A0A2K5UTB3+A0A7N9IGT8); assay: In vivo protac activity at CRBN/BTK in cynomolgus monkey assessed as remaining BTK protein in B cells at 100 mg/kg,po administration for 1 day by flow cytomtery relative to control; type: functional, organism-based
T1 sequence (A0A2K5UTB3 1-488): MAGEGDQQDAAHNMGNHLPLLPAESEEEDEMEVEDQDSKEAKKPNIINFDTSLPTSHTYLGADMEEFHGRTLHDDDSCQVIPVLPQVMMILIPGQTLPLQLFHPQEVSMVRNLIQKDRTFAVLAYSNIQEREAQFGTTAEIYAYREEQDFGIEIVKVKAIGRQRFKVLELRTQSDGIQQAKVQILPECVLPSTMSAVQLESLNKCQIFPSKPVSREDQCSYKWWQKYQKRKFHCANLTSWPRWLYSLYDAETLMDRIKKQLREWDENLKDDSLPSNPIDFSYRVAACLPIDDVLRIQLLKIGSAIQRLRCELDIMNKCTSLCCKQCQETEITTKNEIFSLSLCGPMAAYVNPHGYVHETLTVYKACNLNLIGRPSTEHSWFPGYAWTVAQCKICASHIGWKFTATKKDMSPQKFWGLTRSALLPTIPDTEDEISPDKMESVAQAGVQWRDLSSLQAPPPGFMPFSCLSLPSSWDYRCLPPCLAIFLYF
T1 sequence (A0A7N9IGT8 entry or part of it partner): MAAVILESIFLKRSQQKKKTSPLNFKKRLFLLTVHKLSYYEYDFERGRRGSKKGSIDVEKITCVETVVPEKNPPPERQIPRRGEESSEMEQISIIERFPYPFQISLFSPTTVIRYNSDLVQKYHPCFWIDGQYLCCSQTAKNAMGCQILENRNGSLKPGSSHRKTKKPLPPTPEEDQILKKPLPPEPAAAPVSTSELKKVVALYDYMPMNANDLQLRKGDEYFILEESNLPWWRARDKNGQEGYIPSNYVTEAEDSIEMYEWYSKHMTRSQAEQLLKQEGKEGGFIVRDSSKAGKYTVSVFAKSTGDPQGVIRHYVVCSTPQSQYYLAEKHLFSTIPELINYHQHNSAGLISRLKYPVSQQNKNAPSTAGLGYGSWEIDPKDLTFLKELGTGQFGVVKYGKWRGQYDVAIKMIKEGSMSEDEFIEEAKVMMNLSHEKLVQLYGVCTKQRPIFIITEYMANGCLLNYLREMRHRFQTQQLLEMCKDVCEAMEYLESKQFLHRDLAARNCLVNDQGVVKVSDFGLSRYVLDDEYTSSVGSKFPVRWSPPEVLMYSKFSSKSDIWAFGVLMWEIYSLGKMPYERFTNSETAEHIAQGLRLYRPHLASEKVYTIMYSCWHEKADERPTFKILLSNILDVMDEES

[4] = target: T2, Protein cereblon/Tyrosine-protein kinase BTK (Mus musculus) (UniProt P35991+Q8C7D2); assay: In vivo protac activity at CRBN/BTK in mouse assessed as remaining BTK protein at 10 mg/kg,po administration measured after 24 hrs by flow cytomtery relative to control; type: functional, organism-based
T2 sequence (P35991 whole entry, looked up): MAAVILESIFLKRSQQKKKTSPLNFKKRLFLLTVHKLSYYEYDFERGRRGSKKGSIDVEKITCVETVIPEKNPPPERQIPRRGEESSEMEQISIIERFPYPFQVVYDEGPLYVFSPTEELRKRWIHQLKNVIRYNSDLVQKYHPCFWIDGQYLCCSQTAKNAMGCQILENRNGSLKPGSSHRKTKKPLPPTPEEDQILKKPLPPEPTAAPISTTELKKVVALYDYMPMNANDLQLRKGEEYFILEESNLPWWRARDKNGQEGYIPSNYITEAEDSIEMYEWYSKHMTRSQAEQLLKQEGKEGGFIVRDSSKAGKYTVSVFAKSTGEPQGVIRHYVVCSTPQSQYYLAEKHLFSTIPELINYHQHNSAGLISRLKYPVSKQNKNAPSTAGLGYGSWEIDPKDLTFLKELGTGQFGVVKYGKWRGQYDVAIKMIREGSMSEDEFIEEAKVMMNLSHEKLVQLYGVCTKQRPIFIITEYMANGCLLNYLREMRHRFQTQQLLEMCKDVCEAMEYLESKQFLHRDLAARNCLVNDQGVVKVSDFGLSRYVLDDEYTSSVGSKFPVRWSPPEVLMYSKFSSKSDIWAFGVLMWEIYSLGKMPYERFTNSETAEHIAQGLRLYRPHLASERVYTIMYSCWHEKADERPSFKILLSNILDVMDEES
T2 sequence (Q8C7D2 whole entry, looked up): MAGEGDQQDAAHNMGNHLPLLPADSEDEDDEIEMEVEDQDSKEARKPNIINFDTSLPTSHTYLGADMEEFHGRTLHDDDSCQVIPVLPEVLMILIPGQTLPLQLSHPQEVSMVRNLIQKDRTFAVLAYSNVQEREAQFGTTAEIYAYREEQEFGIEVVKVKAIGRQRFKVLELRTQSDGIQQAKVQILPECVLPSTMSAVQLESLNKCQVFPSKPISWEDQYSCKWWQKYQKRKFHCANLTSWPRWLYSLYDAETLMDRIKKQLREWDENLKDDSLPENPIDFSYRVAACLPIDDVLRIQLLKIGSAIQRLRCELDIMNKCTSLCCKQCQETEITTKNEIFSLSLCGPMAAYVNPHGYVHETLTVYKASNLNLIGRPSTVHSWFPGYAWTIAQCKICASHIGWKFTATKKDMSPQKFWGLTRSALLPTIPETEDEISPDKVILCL

[5] = Cmax in cynomolgus monkey at 10 mg/kg,po; type: ADME, organism-based, Macaca fascicularis; set-up: dose 10 mg/kg, route po; details: in vivo
Cytochrome P450 2D6 = Cytochrome P450 2D6 (Homo sapiens, UniProt P10635); assay: Inhibition of CYP2D6 (unknown origin); type: ADME
Chain of Cytochrome P450 2D6 (P10635 whole entry): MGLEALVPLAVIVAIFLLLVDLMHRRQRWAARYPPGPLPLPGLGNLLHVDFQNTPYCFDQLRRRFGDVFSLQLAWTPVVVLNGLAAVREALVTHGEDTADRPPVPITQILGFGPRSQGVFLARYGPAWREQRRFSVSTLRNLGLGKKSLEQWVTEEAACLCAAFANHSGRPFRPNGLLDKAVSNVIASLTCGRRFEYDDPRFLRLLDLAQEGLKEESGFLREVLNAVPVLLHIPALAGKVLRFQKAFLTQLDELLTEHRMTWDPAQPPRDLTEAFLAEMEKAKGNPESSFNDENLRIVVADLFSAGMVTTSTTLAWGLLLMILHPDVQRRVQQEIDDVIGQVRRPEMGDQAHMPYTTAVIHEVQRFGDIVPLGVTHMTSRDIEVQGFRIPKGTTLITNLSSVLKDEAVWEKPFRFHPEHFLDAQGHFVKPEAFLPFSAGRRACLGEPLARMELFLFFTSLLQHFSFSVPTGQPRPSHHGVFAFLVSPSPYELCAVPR

[6] = target: T1, Protein cereblon-BTK (Macaca fascicularis); assay: In vivo protac activity at CRBN/BTK in cynomolgus monkey assessed as remaining BTK protein in B cells at 10 mg/kg,po administration for 1 day by flow cytomtery relative to control; type: functional, organism-based
[7] = target: Voltage-gated inwardly rectifying potassium channel KCNH2 (Homo sapiens, UniProt Q12809); assay: Inhibition of human ERG; type: toxicity
TMD8 [8] = assay: Antitumor activity against human TMD8 cells expressing BTK C481S mutant xenografted in CB17-SCID mouse assessed as tumor growth inhibition at 10 mg/kg,po administration for 25 days; type: functional; details: TMD8, 600 h, time 25 day, read-out: TGI
[9] = Plasma protein binding in human; type: ADME, cell-free; details: read-out: PPB (converted)
[10] = target: T1, Protein cereblon-BTK (Macaca fascicularis); assay: In vivo protac activity at CRBN/BTK in cynomolgus monkey assessed as remaining BTK protein in B cells at 30 mg/kg,po administration for 1 day by flow cytomtery relative to control; type: functional, organism-based
[11] = target: T1, Protein cereblon-BTK (Macaca fascicularis); assay: In vivo protac activity at CRBN/BTK in cynomolgus monkey assessed as remaining BTK protein in B cells at 10 to 100 mg/kg,po administration for 14 days by flow cytomtery relative to control; type: functional, organism-based; details: dose 10-100 mg/kg, time 14.0 day
[12] = Cmax in dog at 10 mg/kg,po; type: ADME, organism-based, Canis lupus familiaris; set-up: dose 10 mg/kg, route po; details: in vivo
[13] = target: T2, Protein cereblon/Tyrosine-protein kinase BTK (Mus musculus); assay: In vivo protac activity at CRBN/BTK in BALB/c mouse assessed as residual BTK protein in blood at 0.3 mg/kg,po administration measured after 24 hrs by flow cytomtery relative to control
[14] = target: Protein cereblon/Zinc finger protein Aiolos (Macaca fascicularis) (UniProt A0A2K5UTB3+A0A2K5VJM3); assay: In vivo protac activity at CRBN/IKZF3 in cynomolgus monkey assessed as degradation of IKZF3 protein at po administration measured after 24 hrs by flow cytomtery; type: functional, organism-based
Chain of Protein cereblon/Zinc finger protein Aiolos (Macaca fascicularis) (A0A2K5UTB3 1-488): as the sequence (A0A2K5UTB3 1-488) above
Chain of Protein cereblon/Zinc finger protein Aiolos (Macaca fascicularis) (A0A2K5VJM3 entry or part of it partner): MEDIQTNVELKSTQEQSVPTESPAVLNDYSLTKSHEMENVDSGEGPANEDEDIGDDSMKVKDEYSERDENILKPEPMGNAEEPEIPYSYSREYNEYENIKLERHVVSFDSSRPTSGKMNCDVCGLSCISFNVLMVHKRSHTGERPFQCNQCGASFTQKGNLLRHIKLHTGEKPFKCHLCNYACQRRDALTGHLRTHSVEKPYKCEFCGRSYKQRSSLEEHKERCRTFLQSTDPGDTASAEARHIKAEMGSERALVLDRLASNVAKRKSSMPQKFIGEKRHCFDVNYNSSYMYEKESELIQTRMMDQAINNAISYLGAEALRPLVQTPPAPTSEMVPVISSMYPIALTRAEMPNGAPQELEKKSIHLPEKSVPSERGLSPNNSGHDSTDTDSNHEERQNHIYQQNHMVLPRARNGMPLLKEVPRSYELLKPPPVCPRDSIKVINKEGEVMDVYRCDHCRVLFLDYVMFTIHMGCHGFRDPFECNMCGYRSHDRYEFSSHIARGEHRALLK

[15] = Plasma protein binding in mouse; type: ADME, cell-free; details: read-out: PPB
[16] = target: Protein cereblon/Tyrosine-protein kinase BTK (Homo sapiens, UniProt Q06187+Q96SW2, C481S); assay: PROTAC activity at CRBN/BTK C481S mutant in human TMD8 cells assessed as degradation of BTK protein incubated for 4 hrs by HTRF assay; type: cell-based
[17] = Oral bioavailability in dog at 10 mg/kg; type: ADME, organism-based, Canis lupus familiaris; details: in vivo
[18] = Oral bioavailability in rat at 10 mg/kg; type: ADME, organism-based; details: in vivo
[19] = AUClast in cynomolgus monkey at 10 mg/kg,po administration for 1 day; type: ADME, organism-based, Macaca fascicularis; set-up: dose 10 mg/kg, time 1 day, route po; details: in vivo
[20] = Observed clearance in rat at 1 mg/kg,iv; type: ADME, organism-based; details: in vivo
[21] = AUC in dog at 10 mg/kg,po; type: ADME, organism-based, Canis lupus familiaris; set-up: dose 10 mg/kg, route po; details: in vivo
Cytochrome P450 3A4 [22] = target: T3, Cytochrome P450 3A4 (Homo sapiens, UniProt P08684); assay: Inhibition of CYP3A4 (unknown origin); type: ADME
T3 sequence (P08684 whole entry): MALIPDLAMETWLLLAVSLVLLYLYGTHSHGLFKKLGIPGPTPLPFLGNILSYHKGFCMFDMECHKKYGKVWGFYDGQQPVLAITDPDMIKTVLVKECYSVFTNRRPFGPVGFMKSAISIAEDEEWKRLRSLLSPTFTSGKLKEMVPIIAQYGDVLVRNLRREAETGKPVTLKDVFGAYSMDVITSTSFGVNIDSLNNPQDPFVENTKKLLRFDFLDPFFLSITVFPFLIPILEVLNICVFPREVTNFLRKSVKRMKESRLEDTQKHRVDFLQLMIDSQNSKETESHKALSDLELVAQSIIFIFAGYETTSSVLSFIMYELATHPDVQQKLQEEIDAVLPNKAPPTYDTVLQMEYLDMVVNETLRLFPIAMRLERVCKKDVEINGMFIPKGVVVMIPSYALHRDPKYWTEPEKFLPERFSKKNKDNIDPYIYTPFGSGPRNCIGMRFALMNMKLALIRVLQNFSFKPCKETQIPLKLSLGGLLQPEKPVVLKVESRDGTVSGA

[23] = Observed clearance in dog at 1 mg/kg,iv; type: ADME, organism-based, Canis lupus familiaris; details: in vivo
[24] = Cmax in rat at 10 mg/kg,po; type: ADME, organism-based; set-up: dose 10 mg/kg, route po; details: in vivo
Cytochrome P450 3A4 [25] = target: T3, Cytochrome P450 3A4; assay: Time dependent inhibition of CYP3A4 (unknown origin); type: ADME
[26] = Cmax in mouse at 10 mg/kg,po; type: ADME, organism-based; set-up: dose 10 mg/kg, route po; details: in vivo
TMD8 [27] = assay: Antitumor activity against human TMD8 cells expressing wild type BTK xenografted in CB17-SCID mouse assessed as tumor growth inhibition at 90 mg/kg,po administration for 25 days; type: functional; details: TMD8, 600 h, time 25 day, read-out: TGI
Cytochrome P450 1A2 = Cytochrome P450 1A2 (Homo sapiens, UniProt P05177); assay: Inhibition of CYP1A2 (unknown origin); type: ADME
Chain of Cytochrome P450 1A2 (P05177 whole entry): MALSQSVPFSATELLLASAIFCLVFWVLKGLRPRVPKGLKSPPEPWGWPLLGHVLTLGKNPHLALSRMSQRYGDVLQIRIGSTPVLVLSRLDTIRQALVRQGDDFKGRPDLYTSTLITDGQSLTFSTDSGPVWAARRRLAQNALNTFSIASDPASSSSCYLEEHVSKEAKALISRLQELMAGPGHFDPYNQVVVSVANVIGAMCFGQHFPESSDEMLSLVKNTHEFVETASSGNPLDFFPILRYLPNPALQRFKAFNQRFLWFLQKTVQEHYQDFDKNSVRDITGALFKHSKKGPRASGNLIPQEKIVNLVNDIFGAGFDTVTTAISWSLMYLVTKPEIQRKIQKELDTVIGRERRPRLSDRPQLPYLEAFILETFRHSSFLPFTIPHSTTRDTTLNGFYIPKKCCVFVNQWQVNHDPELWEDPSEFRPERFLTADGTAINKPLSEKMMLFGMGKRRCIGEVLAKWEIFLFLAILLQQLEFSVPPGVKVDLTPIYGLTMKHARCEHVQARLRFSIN

[28] = Drug uptake in BALB/c mouse plasma at po administration; type: ADME, organism-based; details: in vivo
[29] = target: T2, Protein cereblon/Tyrosine-protein kinase BTK (Mus musculus); assay: In vivo protac activity at CRBN/BTK in CD-1 mouse assessed as remaining BTK protein in blood at 30 mg/kg,po administration measured after 24 hrs by flow cytomtery relative to control; type: functional, organism-based
[30] = AUClast in cynomolgus monkey at 10 mg/kg,po administration for 14 days; type: ADME, organism-based, Macaca fascicularis; set-up: time 14 day, dose 10 mg/kg, route po; details: in vivo
[31] = Apparent permeability across apical to basolateral side in human Caco-2 cells; type: ADME, cell-based
TMD8 [32] = assay: Antitumor activity against human TMD8 cells expressing BTK C481S mutant xenografted in CB17-SCID mouse assessed as tumor growth inhibition at 90 mg/kg,po administration for 25 days; type: functional; details: TMD8, 600 h, time 25 day, read-out: TGI
[33] = Lipophilicity, logD of compound at pH 7.4; type: physicochemical; details: buffer
Cytochrome P450 2C19 = Cytochrome P450 2C19 (Homo sapiens, UniProt P33261); assay: Inhibition of CYP2C19 (unknown origin); type: ADME
Chain of Cytochrome P450 2C19 (P33261 whole entry): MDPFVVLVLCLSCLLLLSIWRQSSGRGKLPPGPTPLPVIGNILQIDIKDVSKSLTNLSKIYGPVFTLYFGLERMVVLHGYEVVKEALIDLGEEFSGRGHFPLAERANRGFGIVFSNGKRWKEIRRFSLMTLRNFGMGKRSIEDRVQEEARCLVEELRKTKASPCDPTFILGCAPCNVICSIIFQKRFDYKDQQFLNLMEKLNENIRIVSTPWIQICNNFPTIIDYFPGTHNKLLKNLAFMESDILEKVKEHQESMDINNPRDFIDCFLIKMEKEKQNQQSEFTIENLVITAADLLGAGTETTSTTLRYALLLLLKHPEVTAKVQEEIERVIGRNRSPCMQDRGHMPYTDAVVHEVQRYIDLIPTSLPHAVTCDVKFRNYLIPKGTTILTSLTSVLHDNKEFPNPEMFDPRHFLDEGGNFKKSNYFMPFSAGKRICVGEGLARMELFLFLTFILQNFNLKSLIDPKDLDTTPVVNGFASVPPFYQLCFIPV

[34] = Plasma protein binding in cynomolgus monkey; type: ADME, cell-free, Macaca fascicularis; details: read-out: PPB (converted)

Q: For NC(=O)c1ncc(N2CCCCC2)nc1Nc1ccc(C2CCN(C[C@H]3CCN(c4ccc5c(c4)C(=O)N(C4CCC(=O)NC4=O)C5=O)C3)CC2)cc1 (stereo partly drawn) [ZELEBRUDOMIDE], which Cmax [1] is on record?
A: 26.9 ng/mL

Q: What about the Activity (Cereblon/Ikaros) of the same compound?
A: Active

Q: What about the Activity [2] of the same compound?
A: Active

Q: What about the Activity [3] of the same compound?
A: 8%

Q: What about the Activity [4] of the same compound?
A: 21%

Q: What about the Cmax [5] of the same compound?
A: 11 nM

Q: What about the IC50 (Cytochrome P450 2D6) of the same compound?
A: > 30 µM

Q: And the Activity [6]?
A: 11%

Q: And the IC50 [7]?
A: > 30 µM

Q: And the inhibition in vivo at 10 mg/kg (TMD8 [8])?
A: 17%

Q: And the fraction unbound [9]?
A: 0.063

Q: What about the Activity [10] of the same compound?
A: 9%

Q: And the Activity [11]?
A: < 10%

Q: And the Cmax [12]?
A: 31 nM

Q: What about the residual activity [13] of the same compound?
A: 81%

Q: What about the Activity [14] of the same compound?
A: Dose-Dependent Effect

Q: What about the fraction unbound [15] of the same compound?
A: < 0.015

Q: And the DC50 [16]?
A: 0.031 µM

Q: And the bioavailability [17]?
A: 1%

Q: What about the bioavailability [18] of the same compound?
A: 7.1%

Q: What about the AUC(0-t) at 24 h [19] of the same compound?
A: 267 ng·h/mL

Q: What about the clearance [20] of the same compound?
A: 19 mL/min/kg

Q: And the AUC [21]?
A: 0.13 µM·h

Q: What about the IC50 (Cytochrome P450 3A4 [22]) of the same compound?
A: > 30 µM

Q: What about the clearance [23] of the same compound?
A: 18.4 mL/min/kg

Q: What about the Cmax [24] of the same compound?
A: 67 nM

Q: What about the TDI (Cytochrome P450 3A4 [25]) of the same compound?
A: Not Active

Q: And the Cmax [26]?
A: 1300 nM

Q: And the inhibition in vivo at 90 mg/kg (TMD8 [27])?
A: 99%

Q: What about the IC50 (Cytochrome P450 1A2) of the same compound?
A: > 30 µM

Q: And the Drug uptake [28]?
A: Dose-Dependent Effect

Q: What about the Activity [29] of the same compound?
A: 11%

Q: And the AUC(0-t) at 336 h [30]?
A: 366 ng·h/mL

Q: And the Papp A→B [31]?
A: < 0.02 ×10⁻⁶ cm/s

Q: What about the inhibition in vivo at 90 mg/kg (TMD8 [32]) of the same compound?
A: 59%

Q: What about the logD [33] of the same compound?
A: 3.1

Q: What about the IC50 (Cytochrome P450 2C19) of the same compound?
A: > 30 µM

Q: What about the fraction unbound [34] of the same compound?
A: 0.046
